Assay results as given in PubChem BioAssay (NCI).
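Grown in 96-well plates, cells were treated for 48 hours with each compound at five concentrations. Insufficient inhibition: endpoint recorded as highest concentration tested. TGI is the concentration that stops growth completely.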

Key:
Assay in all cases: growth of human tumour cells (NCI), 48 h
MALME-3M melanoma = tested on: MALME-3M melanoma
EKVX NSCLC = tested on: EKVX NSCLC
OVCAR-8 ovarian = tested on: OVCAR-8 ovarian
M19-MEL melanoma = tested on: M19-MEL melanoma
SNB-19 CNS = tested on: SNB-19 CNS
HT29 colon = tested on: HT29 colon
HOP-92 NSCLC = tested on: HOP-92 NSCLC
IGROV1 ovarian = tested on: IGROV1 ovarian
HCC-2998 colon = tested on: HCC-2998 colon
HL-60(TB) leukemia = tested on: HL-60(TB) leukemia
RXF 393 renal = tested on: RXF 393 renal
K-562 leukemia = tested on: K-562 leukemia
SNB-78 CNS = tested on: SNB-78 CNS
HCT-15 colon = tested on: HCT-15 colon
SW-620 colon = tested on: SW-620 colon
NCI-H522 lung = tested on: NCI-H522 lung
LOX IMVI melanoma = tested on: LOX IMVI melanoma
LXFL 529 NSCLC = tested on: LXFL 529 NSCLC
KM20L2 colon = tested on: KM20L2 colon
HOP-18 NSCLC = tested on: HOP-18 NSCLC
SK-MEL-28 melanoma = tested on: SK-MEL-28 melanoma
HOP-62 NSCLC = tested on: HOP-62 NSCLC
DLD-1 colon = tested on: DLD-1 colon
KM12 colon = tested on: KM12 colon
A549 NSCLC = tested on: A549 NSCLC
NCI-H460 lung = tested on: NCI-H460 lung
OVCAR-5 ovarian = tested on: OVCAR-5 ovarian
UO-31 renal = tested on: UO-31 renal
786-0 renal = tested on: 786-0 renal
SNB-75 CNS = tested on: SNB-75 CNS
SK-MEL-5 melanoma = tested on: SK-MEL-5 melanoma
HCT-116 colon = tested on: HCT-116 colon
SF-295 CNS = tested on: SF-295 CNS
UACC-62 melanoma = tested on: UACC-62 melanoma
COLO 205 colon = tested on: COLO 205 colon
CAKI-1 renal = tested on: CAKI-1 renal
M14 melanoma = tested on: M14 melanoma
SK-MEL-2 melanoma = tested on: SK-MEL-2 melanoma
DMS 114 small cell lung = tested on: DMS 114 small cell lung
SN12C renal = tested on: SN12C renal
RPMI-8226 leukemia = tested on: RPMI-8226 leukemia
NCI-H226 lung = tested on: NCI-H226 lung
SF-539 CNS = tested on: SF-539 CNS
ACHN renal = tested on: ACHN renal
UACC-257 melanoma = tested on: UACC-257 melanoma
MOLT-4 leukemia = tested on: MOLT-4 leukemia
CCRF-CEM leukemia = tested on: CCRF-CEM leukemia
TK-10 renal = tested on: TK-10 renal
OVCAR-4 ovarian = tested on: OVCAR-4 ovarian
A498 renal = tested on: A498 renal
NCI-H23 lung = tested on: NCI-H23 lung
DMS 273 small cell lung = tested on: DMS 273 small cell lung
XF 498 CNS = tested on: XF 498 CNS
SF-268 CNS = tested on: SF-268 CNS
OVCAR-3 ovarian = tested on: OVCAR-3 ovarian
SK-OV-3 ovarian = tested on: SK-OV-3 ovarian
U251 CNS = tested on: U251 CNS

Measured: TGI

COc1ccc(C2=C(Cl)c3cc(OC)c(OC)cc3C2OC)cc1OC (centres undefined)
52.7 µM: K-562 leukemia
49.2 µM: SW-620 colon
41.8 µM: DLD-1 colon
not listed: OVCAR-3 ovarian | SK-OV-3 ovarian | U251 CNS
> 100 µM: all other assays above

COC(=O)C1CCc2c1c(=O)n1c([nH]c3ccccc31)c2C#N (centres undefined)
not listed: SN12C renal | MOLT-4 leukemia
> 100 µM: all other assays above
